Measured values from US8247211B2, “Glycopeptide antibiotics” (American Cyanamid Company, priority 2001, dated 2012).
Values after ≈ are worked out from the molar mass of the structure shown.

Columns and labels:
Test in all cases: In vitro antibacterial evaluation: minimum inhibitory concentration (MIC), broth dilution method
Assay type in all cases: cell-based
Enterococcus sp. = system: Enterococcus sp.
Description: (§1) The minimum inhibitory concentration (MIC), the lowest concentration of the antibiotic which inhibits growth of the test organism, is determined by the broth dilution method using Muller-Hinton II […] (Baltimore Biological Laboratories) following the recommendations of the National Committee for Clinical Laboratory Standards [Methods for dilution antimicrobial susceptibility tests for bacteria that grow aerobically, approved standard M7-A2, National Committee for Clinical Laboratory Standards, Villanova, Pa].
(§2) An inoculum level of 5×10^5 CFU/mL, and a range of antibiotic concentrations (64-0.06 μg/mL) is used. […] The test organisms include a spectrum of Gram-positive bacteria comprised of Staphylococcus sp., Streptococcus sp. and Enterococcus sp. These organisms include recent clinical isolates that are resistant to methicillin, penicillin and/or vancomycin.

Staphylococcus sp. = conditions: broth dilution, 18 hours at 35° C.
Description: as §1, §2

Escherichia coli = system: Escherichia coli
Description: as §1, §2

Streptococcus sp. = system: Streptococcus sp.
Description: as §1, §2

MIC Enterococcus faecalis (ATCC 29212) (Enterococcus sp.; strain ATCC 29212): >64 µg/mL | MIC Enterococcus faecalis (GC 2242) (Enterococcus sp.; strain GC 2242): >64 µg/mL | MIC Enterococcus faecium (GC 2243) (Enterococcus sp.; strain GC 2243): >64 µg/mL | MIC Enterococcus faecalis (GC 2691) (Enterococcus sp.; strain GC 2691): >64 µg/mL | MIC Enterococcus faecalis (GC 3059) (Enterococcus sp.; strain GC 3059): >64 µg/mL | MIC Enterococcus faecalis (GC 4552) (Enterococcus sp.; strain GC 4552): >64 µg/mL | MIC Enterococcus faecalis (GC 4553) (Enterococcus sp.; strain GC 4553): >64 µg/mL | MIC Enterococcus faecalis (GC 4554) (Enterococcus sp.; strain GC 4554): >64 µg/mL | MIC Enterococcus faecium (GC 4556) (Enterococcus sp.; strain GC 4556): >64 µg/mL | MIC Enterococcus faecium (GC 4557) (Enterococcus sp.; strain GC 4557): 16 µg/mL (≈ 11.1 µM) | MIC Enterococcus avium (GC 4558) (Enterococcus sp.; strain GC 4558): 64 µg/mL (≈ 44.3 µM) | MIC Enterococcus faecalis (GC 6189) (Enterococcus sp.; strain GC 6189): >64 µg/mL | MIC Coagulase Negative Staphylococcus (GC 4547) (Staphylococcus sp.; 5×10^5 CFU/mL): 16 µg/mL (≈ 11.1 µM) | MIC Coagulase Negative Staphylococcus (GC 4548) (Staphylococcus sp.; 5×10^5 CFU/mL): 8 µg/mL (≈ 5.54 µM) | MIC Coagulase Negative Staphylococcus (GC 4549) (Staphylococcus sp.; 5×10^5 CFU/mL): 8 µg/mL (≈ 5.54 µM) | MIC Coagulase Negative Staphylococcus (GC 4551) (Staphylococcus sp.; 5×10^5 CFU/mL): 32 µg/mL (≈ 22.2 µM) | MIC Coagulase Negative Staphylococcus (GC 6257) (Staphylococcus sp.; 5×10^5 CFU/mL): 8 µg/mL (≈ 5.54 µM) | MIC Staphylococcus aureus (ATCC 29213) (Staphylococcus sp.; 5×10^5 CFU/mL): 32 µg/mL (≈ 22.2 µM) | MIC Staphylococcus aureus (GC 1131) (Staphylococcus sp.; 5×10^5 CFU/mL): 32 µg/mL (≈ 22.2 µM) | MIC Staphylococcus aureus (GC 3051) (Staphylococcus sp.; 5×10^5 CFU/mL): 32 µg/mL (≈ 22.2 µM) | MIC Staphylococcus aureus (GC 3053) (Staphylococcus sp.; 5×10^5 CFU/mL): 32 µg/mL (≈ 22.2 µM) | MIC Staphylococcus aureus (GC 4541) (Staphylococcus sp.; 5×10^5 CFU/mL): 16 µg/mL (≈ 11.1 µM) | MIC Staphylococcus aureus (GC 4542) (Staphylococcus sp.; 5×10^5 CFU/mL): 32 µg/mL (≈ 22.2 µM) | MIC Staphylococcus aureus (GC 4544) (Staphylococcus sp.; 5×10^5 CFU/mL): 32 µg/mL (≈ 22.2 µM) | MIC Staphylococcus aureus (GC 4545) (Staphylococcus sp.; 5×10^5 CFU/mL): 16 µg/mL (≈ 11.1 µM) | MIC Staphylococcus aureus-SMITH (GC 4543) (Staphylococcus sp.; 5×10^5 CFU/mL): 16 µg/mL (≈ 11.1 µM) | MIC Staphylococcus aureus (ATCC 29213) (Staphylococcus sp.; strain ATCC 29213): 32 µg/mL (≈ 22.2 µM) | MIC Staphylococcus aureus (GC 1131) (Staphylococcus sp.; strain GC 1131): 32 µg/mL (≈ 22.2 µM) | MIC Staphylococcus aureus (GC 3051) (Staphylococcus sp.; strain GC 3051): 32 µg/mL (≈ 22.2 µM) | MIC Staphylococcus aureus (GC 3053) (Staphylococcus sp.; strain GC 3053): 32 µg/mL (≈ 22.2 µM) | MIC Staphylococcus aureus (GC 4541) (Staphylococcus sp.; strain GC 4541): 16 µg/mL (≈ 11.1 µM) | MIC Staphylococcus aureus (GC 4542) (Staphylococcus sp.; strain GC 4542): 32 µg/mL (≈ 22.2 µM) | MIC Staphylococcus aureus-SMITH (GC 4543) (Staphylococcus sp.; strain GC 4543): 16 µg/mL (≈ 11.1 µM) | MIC Staphylococcus aureus (GC 4544) (Staphylococcus sp.; strain GC 4544): 32 µg/mL (≈ 22.2 µM) | MIC Staphylococcus aureus (GC 4545) (Staphylococcus sp.; strain GC 4545): 16 µg/mL (≈ 11.1 µM) | MIC Coagulase Negative Staphylococcus (GC 4547) (Staphylococcus sp.; strain GC 4547): 16 µg/mL (≈ 11.1 µM) | MIC Coagulase Negative Staphylococcus (GC 4548) (Staphylococcus sp.; strain GC 4548): 8 µg/mL (≈ 5.54 µM) | MIC Coagulase Negative Staphylococcus (GC 4549) (Staphylococcus sp.; strain GC 4549): 8 µg/mL (≈ 5.54 µM) | MIC Coagulase Negative Staphylococcus (GC 4551) (Staphylococcus sp.; strain GC 4551): 32 µg/mL (≈ 22.2 µM) | MIC Coagulase Negative Staphylococcus (GC 6257) (Staphylococcus sp.; strain GC 6257): 8 µg/mL (≈ 5.54 µM) | MIC Escherichia coli (ATCC 25922) (Escherichia coli; strain ATCC 25922): >64 µg/mL | MIC Escherichia coli (GC 4559) (Escherichia coli; strain GC 4559): >64 µg/mL | MIC Escherichi coli (GC 4560) (Escherichia coli; strain GC 4560): 16 µg/mL (≈ 11.1 µM) | MIC Streptococcus pneumoniae (ATCC 6301) (Streptococcus sp.; strain ATCC 6301): 8 µg/mL (≈ 5.54 µM) | MIC Streptococcus pneumoniae (GC 1894) (Streptococcus sp.; strain GC 1894): 8 µg/mL (≈ 5.54 µM) | MIC Streptococcus pyogenes (GC 4563) (Streptococcus sp.; strain GC 4563): 16 µg/mL (≈ 11.1 µM) | MIC Streptococcus agalactiae (GC 4564) (Streptococcus sp.; strain GC 4564): 32 µg/mL (≈ 22.2 µM) | MIC Streptococcus pneumoniae (GC 4565) (Streptococcus sp.; strain GC 4565): 16 µg/mL (≈ 11.1 µM)
SMILES: COc1cc(OC)cc(C2OC3C(OC4C(CO)OC(Oc5ccc(CC6NC(=O)C(C(C)c7ccccc7)NC(=O)CNC(=O)C(CO)NC(=O)C(C(O)C7CNC(=N)N7C7OC(CO)C(O)C(O)C7O)NC(=O)C(C(O)C7CNC(=N)N7)NC6=O)cc5)C(O)C4O)OC(CO)C(O)C3O2)c1 (stereo not drawn) [Example 150a, Cyclo[glycyl-β-methylphenylalanyl-O-[4-O-[2,3-O-(3,5-dimethoxybenzylidene)hexopyranosyl]-hexopyranosyl]tyrosyl-3-(2-iminoimidazolidin-4-yl)seryl-3-(3-hexopyranosyl-2-iminoimidazolidin-4-yl)serylseryl]]
MIC Staphylococcus haemolyticus (GC 4546) (Staphylococcus sp.; 5×10^5 CFU/mL): 16 µg/mL (≈ 11.1 µM) | MIC Staphylococcus haemolyticus (GC 4546) (Staphylococcus sp.; strain GC 4546): 16 µg/mL (≈ 11.1 µM)
